From patent US11498928B2, “Macrocyclic spiroethers as Mcl-1 inhibitors” (ASCENTAGE PHARMA (SUZHOU) CO., LTD., priority 2019, dated 2022) come the findings set out here.

Molecules are shown by their SMILES.

The target of assay [1] is T1, Mcl-1 protein (residues 171-323) (Homo sapiens, UniProt Q07820).
T1 construct: Tag-free Mcl-1 protein (residues 171-323) was used in the FP assay
As to the kind of experiment: Inhibition of Mcl-1 by fluorescence polarization (FP) competitive binding assay with FAM-Bid tracer. Conditions: 2 nM FAM-Bid, 20 nM Mcl-1, 30 min. The method, then: Inhibition of Mcl-1 by Fluorescence Polarization (FP) Assay.
The relative binding potency of representative Compounds of the Disclosure was determined by a fluorescence polarization (FP) assay (Long et al, BMC Biotechnology 13:45 (2013)). The method used a fluorescein labelled peptide (FAM-Bid) which binds to the Mcl-1 protein leading to an increased anisotropy measured in milli-polarization (mP) values using a plate reader. […] Tag-free Mcl-1 protein (residues 171-323) was used in the FP assay (Mady et al, Scientific Reports 8: 10210-10210 (2018); Yang et al, ACS Med. Chem. Lett. 3:308-312 (2012)).
A 10-points serial dilution of each compound was prepared in DMSO and 5 μL solution was transferred into flat bottomed, 96-well back plate (final DMSO concentration 5%). 120 μL of Buffer (PBS, 0.01% BGG (Sigma Cat. #SRE0011), 0.01% Triton X-100), containing the Fluorescein labelled peptide (Final concentration 2 nM) and Mcl-1 protein (final concentration 20 nM) was then added. Assay plates were incubated 30 mins at room temperature with gentle shaking before FP was measured on a Biotek Synergy 1MF reader (Ex. 485 nm, Em. 528 nm, Cut off 510 nm) and mP calculated. The binding of increasing doses of test compounds was expressed as a percentage reduction in mP compared to a window established between 5% DMSO only and 100% inhibition controls (no Mcl-1 protein). 10-points dose response curves were plotted with GraphPad software using Sigmoidal Dose-Response Model and the IC50 values were determined by nonlinear regression fitting of the competition curves. Cell Viability Assay (NCI-H929 cells)
In general terms: In fluorescence polarisation assays a small probe gives low polarisation when free and higher when bound to something large.

Another assay deals with OPM-2 cells. Kind of assay: Cell viability assay (OPM-2 cells), CCK-8. Conditions: 5% FBS. It is filed as cell-based. How it is done:
OPM-2 cells were obtained from Deutsche Sammlung von Mikroorganismen and Zellkulturen GmbH (DSMZ). Cells were maintained in the recommended culture medium with 10% FBS at 37° C. and an atmosphere of 5% CO2.
The effect of representative Compounds of the Disclosure on cell viability was determined using Cell Counting Kit-8 (CCK-8) assay (Shanghai Life iLab Bio Technology) according to the manufacturer's instructions. Each tested compound was serially diluted in culture medium, 100 μL of the compound dilution was added into 96-well plates. 100 μL of an OPM-2 cell suspension (20000 cells/well) in culture medium were seeded into the corresponding well of the plate and the cells were incubated at 37° C. in an atmosphere of 5% CO2 for 24 hours. In the next day, 20 μL of CCK-8 solution was added to each well of the plate and incubated for 4 hours.
The plates were read at 450 nm on the microplate spectrophotometer (SpectraMax plus 384, Molecular devices). The readings were normalized to the vehicle cells, and the IC50 was calculated by nonlinear regression analysis using GraphPad Prism 6 software.

A further assay has as its system NCI-H929 cells. As to the kind of experiment: Cell viability assay (NCI-H929 cells), CCK-8. Type of assay: cell-based. Particulars: 5% FBS. The method, then: NCI-H929 cells were obtained from American Type Culture Collection (ATCC). Cells were maintained in the recommended culture medium (RPMI 1640) with 10% FBS and 0.05 mM BME at 37° C. and an atmosphere of 5% CO2.
The effect of Compounds on cell viability was determined using Cell Counting Kit-8 (CCK-8) assay according to the manufacturer's instructions. 95 μL of NCI-H929 cell suspension (20000 cells/well) in culture medium were seeded into 96-well plates and cultured 4 hrs. Each tested compound was serially diluted in DMSO, then 5 μL of the compound or DMSO was diluted in 95 μL medium once more. At last, 5 μL of the compound dilution was added to the corresponding well of the cell plate. After the addition of the tested compound, the cells were incubated at 37° C. in an atmosphere of 5% CO2 for 24 hrs. At the end, 10 μL of CCK-8 solution was added to each well of the plate and incubated for 1-4 hours. The plates were read at 450 nm on the microplate reader (BioTek Synergy 1MF). The readings were normalized to the vehicle cells, and the IC50 was calculated by nonlinear regression analysis using GraphPad Prism 6 software. Cell Viability Assay (OPM-2 cells)

T1 sequence (Q07820 171-323): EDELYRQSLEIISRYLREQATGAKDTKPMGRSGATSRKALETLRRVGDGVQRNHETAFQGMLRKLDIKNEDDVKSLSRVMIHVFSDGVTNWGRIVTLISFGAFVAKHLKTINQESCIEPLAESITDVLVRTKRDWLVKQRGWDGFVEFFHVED

Take `C[C@@H]1[C@@H](C)S(=O)(=O)NC(=O)c2ccc3c(c2)N(C[C@@H]2CC[C@H]2[C@@H](OCCN2CCS(=O)(=O)CC2)C2=C[C@H]1C2)C[C@@]1(CCCc2c1ccc(Cl)c2F)CO3` [compound 88, (1S,11′R,12′S,13′R,16′R,16a′R,18a′R,E)-6-chloro-16′-(2-(1,1-dioxidothiomorpholino)ethoxy)-5-fluoro-11′,12′-dimethyl-3,4,12′,13′,16′,16a′,17′,18′,18a′,19′-decahydro-1′H,2H,3′H,11′H-spiro[naphthalene-1,2′-[5,7]etheno[13,15]methanocyclobuta[i][1,4]oxazepino[3,4-f][1]thia[2,7]diazacyclohexadecin]-8′(9′H)-one 10′,10′-dioxide]: the IC50 in assay [1] came to 13 nM; in the assay on OPM-2 cells (Homo sapiens, OPM-2, 24 h), 118 nM; in the assay with NCI-H929 cells (Homo sapiens, NCI-H929, 24 h), 40 nM.
On to `C[C@@H]1[C@@H](C)S(=O)(=O)NC(=O)c2ccc3c(c2)N(C[C@@H]2CC[C@H]2[C@@H](OCCN2C[C@@H](C)O[C@@H](C)C2)C2=C[C@H]1C2)C[C@@]1(CCCc2c1ccc(Cl)c2F)CO3` [compound 82, (1S,11′R,12′S,13′R,16′R,16a′R,18a′R,E)-6-chloro-16′-(2-((2S,6R)-2,6-dimethylmorpholino)ethoxy)-5-fluoro-11′,12′-dimethyl-3,4,12′,13′,16′,16a′,17′,18′,18a′,19′-decahydro-1′H,2H,3′H,11′H-spiro[naphthalene-1,2′-[5,7]etheno[13,15]methanocyclobuta[i][1,4]oxazepino[3,4-f][1]thia[2,7]diazacyclohexadecin]-8′(9′H)-one 10′,10′-dioxide], for which the IC50 in assay [1] was 31 nM; with OPM-2 cells (Homo sapiens, OPM-2, 24 h), 54 nM; in the assay on NCI-H929 cells (Homo sapiens, NCI-H929, 24 h), 56 nM.
In the case of `C[C@@H]1[C@@H](C)S(=O)(=O)NC(=O)c2ccc3c(c2)N(C[C@@H]2CC[C@H]2[C@@H](OCCN2CCCS2(=O)=O)C2=C[C@H]1C2)C[C@@]1(CCCc2c1ccc(Cl)c2F)CO3` [compound 92, (1S,11′R,12′S,13′R,16′R,16a′R,18a′R)-6-chloro-16′-(2-(1,1-dioxidoisothiazolidin-2-yl)ethoxy)-5-fluoro-11′,12′-dimethyl-3,4,12′,13′,16′,16a′,17′,18′,18a′,19′-decahydro-1′H,2H,3′H,11′H-spiro[naphthalene-1,2′-[5,7]etheno[13,15]methanocyclobuta[i][1,4]oxazepino[3,4-f][1]thia[2,7]diazacyclohexadecin]-8′(9′H)-one 10′,10′-dioxide], the IC50 in assay [1] worked out at 14 nM; in the assay on OPM-2 cells (Homo sapiens, OPM-2, 24 h), 44 nM; in the assay with NCI-H929 cells (Homo sapiens, NCI-H929, 24 h), 59 nM.
In the case of `C[C@@H]1[C@@H](C)S(=O)(=O)NC(=O)c2ccc3c(c2)N(C[C@@H]2CC[C@H]2[C@@H](OCCN2C[C@@H](C)N(C)[C@@H](C)C2)C2=C[C@H]1C2)C[C@@]1(CCCc2c1ccc(Cl)c2F)CO3` [compound 84, (1S,11′R,12′S,13′R,16′R,16a′R,18a′R,E)-6-chloro-5-fluoro-11′,12′-dimethyl-16′-(2-((3 S,5R)-3,4,5-trimethylpiperazin-1-yl)ethoxy)-3,4,12′,13′,16′,16a′,17′,18′,18a′,19′-decahydro-1′H,2H,3′H, 11′H-spiro[naphthalene-1,2′-[5,7]etheno[13,15]methanocyclobuta[i][1,4]oxazepino[3,4-f][1]thia[2,7]diazacyclohexadecin]-8′(9′H)-one 10′,10′-dioxide], the IC50 was 20 nM in assay [1]; 65 nM in the assay with OPM-2 cells (Homo sapiens, OPM-2, 24 h); 76 nM in the assay with NCI-H929 cells (Homo sapiens, NCI-H929, 24 h).
As to `CO[C@@]1(CN2CCN(C(C)=O)CC2)C2=C[C@@H](C2)[C@H](C)[C@@H](C)S(=O)(=O)NC(=O)c2ccc3c(c2)N(C[C@@H]2CC[C@H]21)C[C@@]1(CCCc2c1ccc(Cl)c2F)CO3` [compound 49], the IC50 in assay [1] was 11 nM; in the assay with OPM-2 cells (Homo sapiens, OPM-2, 24 h) it was 186 nM; with NCI-H929 cells (Homo sapiens, NCI-H929, 24 h) it was 12 nM.
In the case of `COCCO[C@H]1C2=C[C@@H](C2)[C@H](C)[C@@H](C)S(=O)(=O)NC(=O)c2ccc3c(c2)N(C[C@@H]2CC[C@H]21)C[C@@]1(CCCc2c1ccc(Cl)c2F)CO3` [compound 60, (1S,11′R,12′S,13′R,16′R,16a′R,18a′R,E)-6-chloro-5-fluoro-16′-(2-methoxyethoxy)-11′,12′-dimethyl-3,4,12′,13′,16′,16a′,17′,18′,18a′,19′-decahydro-1′H,2H,3′H,11′H-spiro[naphthalene-1,2′-[5,7]etheno[13,15]methanocyclobuta[i][1,4]oxazepino[3,4-f][1]thia[2,7]diazacyclohexadecin]-8′(9′H)-one 10′,10′-dioxide], the IC50 in assay [1] was found to be 15 nM; in the assay with OPM-2 cells (Homo sapiens, OPM-2, 24 h), 66 nM; in the assay on NCI-H929 cells (Homo sapiens, NCI-H929, 24 h) it was 19 nM.
For the compound `CC[C@@H]1CS(=O)(=O)NC(=O)c2ccc3c(c2)N(C[C@@H]2CC[C@H]2[C@@H](OC)C2=CC1C2)C[C@@]1(CCCc2cc(Cl)ccc21)CO3` (single isomer, unassigned) [Cpd. No. 10 (Isomer 1)], the results for the IC50 (in assay [1]; with OPM-2 cells (24 h); in the assay with NCI-H929 cells (24 h)) were 4.9 nM, 2500 nM and 1700 nM, respectively.
Take `CO[C@H]1C2=C[C@@H](C2)[C@H](C)CS(=O)(=O)NC(=O)c2ccc3c(c2)N(C[C@@H]2CC[C@H]21)C[C@@]1(CCCc2c1ccc(Cl)c2F)CS3` (single isomer, unassigned) [24 (isomer 1)]: the half-inhibitory concentration (IC50) in assay [1] was 6.4 nM; with OPM-2 cells (Homo sapiens, OPM-2, 24 h), 670 nM; in the assay with NCI-H929 cells (Homo sapiens, NCI-H929, 24 h), 660 nM.
In the case of `CO[C@H]1C2=CC(C)(C2)[C@H](C)CS(=O)(=O)NC(=O)c2ccc3c(c2)N(C[C@@H]2CC[C@H]21)C[C@@]1(CCCc2cc(Cl)ccc21)CO3` (single isomer, unassigned) [Cpd. No. 18 (Isomer 1)], the IC50 came to 4.2 nM in assay [1], 25 nM in the assay with OPM-2 cells (24 h) and 37 nM with NCI-H929 cells (24 h).
For the compound `CO[C@@]1(CN2CCN3CCOC[C@@H]3C2)C2=C[C@@H](C2)[C@H](C)[C@@H](C)S(=O)(=O)NC(=O)c2ccc3c(c2)N(C[C@@H]2CC[C@H]21)C[C@@]1(CCCc2c1ccc(Cl)c2F)CO3` [compound 51, (1S,11′R,12′S,13′R,16′R,16a′R,18a′R,E)-6-chloro-5-fluoro-16′-(((S)-hexahydropyrazino[2,1-c][1,4]oxazin-8(1H)-yl)methyl)-16′-methoxy-11′,12′-dimethyl-3,4,12′,13′,16′,16a′,17′,18′,18a′,19′-decahydro-1′H,2H,3′H,11′H-spiro[naphthalene-1,2′-[5,7]etheno[13,15]methanocyclobuta[i][1,4]oxazepino[3,4-f][1]thia[2,7]diazacyclohexadecin]-8′(9′H)-one 10′,10′-dioxide], the IC50 came to 7.4 nM in assay [1]; 14 nM in the assay on OPM-2 cells (Homo sapiens, OPM-2, 24 h); 6 nM with NCI-H929 cells (Homo sapiens, NCI-H929, 24 h).
As to `CCO[C@@]1(CN2CCN3CCOC[C@H]3C2)C2=C[C@@H](C2)[C@H](C)[C@@H](C)S(=O)(=O)NC(=O)c2ccc3c(c2)N(C[C@@H]2CC[C@H]21)C[C@@]1(CCCc2c1ccc(Cl)c2F)CO3` [compound 45, (1S,11′R,12′S,13′R,16′R,16a′R,18a′R,E)-6-chloro-16′-ethoxy-5-fluoro-16′-(((R)-hexahydropyrazino[2,1-c][1,4]oxazin-8(1H)-yl)methyl)-11′,12′-dimethyl-3,4,12,′13′,16′,16a′,17′,18′,18a′,19′-decahydro-1′H,2H,3′H,11′H-spiro[naphthalene-1,2′-[5,7]etheno[13,15]methanocyclobuta[i][1,4]oxazepino[3,4-f][1]thia[2,7]diazacyclohexadecin]-8′(9′H)-one 10′,10′-dioxide], the IC50 in assay [1] was determined as 15 nM; with OPM-2 cells (Homo sapiens, OPM-2, 24 h), 105 nM; in the assay on NCI-H929 cells (Homo sapiens, NCI-H929, 24 h), 46 nM.

The IC50 is the midpoint of a concentration-inhibition curve.
